According to article PMC10064330, “Reversible Dual-Covalent Molecular Locking of the 14-3-3/ERRγ Protein–Protein Interaction as a Molecular Glue Drug Discovery Approach” (Journal of the American Chemical Society, 2023):

Tests used:
14-3-3γ/RND3 complex = biological target: T1, 14-3-3γ/RND3 complex (Homo sapiens, UniProt P61587+P61981); assay: FA / TD-FA selectivity screen, RND3 client peptide; assay type: binding; details: 100 μM compound; for effect on RND3 binding to 14-3-3γ over time / effect on 14-3-3γ/RND3 complex at short time lengths: TD-FA
T1 construct: RND3 pS240, PDB 8BFC; made in house; host or cells: E. coli NiCo21 (DE3)
Method: (§1) Drugging the hub protein 14-3-3 raises the challenge of selectivity, given that 14-3-3 binds several hundred phosphoprotein partners (Figure 4a).[54] We hypothesized that the interplay of chemical reactivity, the topology, and functionality of the composite binding pocket shaped by 14-3-3 and the interaction partner drives selective stabilization of the 14-3-3/ERRγ complex.[53] To validate selectivity, molecular locks 5 and 10 were tested against a panel of nine 14-3-3 client peptides in an FA assay, and the SF100 was determined for each 14-3-3 PPI (Figure 4b and Figures S18–S20). This client panel contained a diverse representation of 14-3-3 binding proteins, differing for example in size and hydrophobicity of the +1 amino acid. Importantly, clients PKR and RND3, each containing a +1 Cys, were included in the panel.
(§2) To further assess off-target reactivity to +1 Cys-containing peptides, fragment 1, locks 5 and 10 were also screened against PKR and RND3 in the TD-FA assay.
(§3) Figure S20. KD and SF100 plot – selectivity screen. […]
(§4) nine different client peptides in presence of DMSO (negative control) or 100 µM of compound 1, 5 or 10 (based on binding curves in Figure S19). Also a bar plot representation of stabilization factor (SF100) of compounds 1, 5 and 10 for each of these peptides (bottom plot).
(§5) (1 picture or pasted object on this page, not shown here)
(§6) Experimental Section Biophysical Assays
(§7) 14-3-3γ protein expression (FA, TSA, MS assays)
A pPROEX HTb expression vector encoding the human 14-3-3 protein gamma (14-3-3γ) with a N-terminal his6-tag was transformed by heat shock into NiCo21 (DE3) competent cells. Single colonies were cultured in 50 mL LB medium (100 µg/mL ampicillin). After overnight incubation at 37 °C, cultures were transferred to 2 L TB media (100 µg/mL ampicillin, 1 mM MgCl2) and incubated at 37 °C until an OD600 nm of 0.8 -1.2 was reached. Protein expression was then induced with 0.4 mM isopropyl-β-d-thiogalactoside (IPTG), and cultures were incubated overnight at 18 °C. Cells were harvested by centrifugation (8600 rpm, 20 minu tes, 4 °C) and resuspended in lysis buffer (50 mM Hepes, pH 8.0, 300 mM NaCl, 12.5 mM imidazole, 5 mM MgCl2, 2 mM βME) containing cOmplete™ EDTA-free Protease Inhibitor Cocktail tablets (1 tablet/100 ml lysate) and benzonase ( 5 µl/100 ml). After lysis using a C3 Emulsiflex-C3 homogenizer (Avestin), the cell lysate was cleared by centrifugation (20000 rpm, 30 minutes, 4 °C) and purified using Ni2+-affinity chromatography (Ni -NTA superflow cartridges, Qiagen). Typically two 5 mL columns (flow 5 mL/min) were use d for a 2 L culture in which the lysate was loaded on the column , washed with 10 CV wash buffer (50 mM Hepes, pH 8.0, 300 mM NaCl, 25 mM imidazole, 2 mM βME), and eluted in several fractions (2-4 CV) of elution buffer (50 mM Hepes, pH 8.0, 300 mM NaCl, 250 mM imidazole, 2 mM βME). Fractions containing the 14 -3-3 protein were combined and dialyzed into 25 mM HEPES pH 8.0, 100 mM NaCl, 10 mM MgCl2, 500 µM TCEP. Finally, the protein was concentrated to ∼60 mg/mL, analyzed Q-Tof LC/MS, and aliquots were flash-frozen for storage at −80 °C.
14-3-3σΔc C38N protein expression (Crystallography)
A pPROEX HTb expression vector encoding the human 14-3-3 protein sigma truncated after T231 (14-3-3σΔc), mutated C38N, and containing a N-terminal his6-tag was transformed by heat shock into NiCo21 (DE3) competent cells. Single colonies were cultured in 50 mL LB medium (100 µg/mL ampicillin). After overnight incubation at 37 °C, cultures were transferred to 2 L TB media (100 µg/mL ampicillin, 1 mM MgCl2) and incubated at 37 °C until an OD600 nm of 0.8-1.2 was reached. Protein expression was then induced with 0.4 mM isopropyl-β-d-thiogalactoside (IPTG), and cultures were incubated overnight at 18 °C. Cells were harvested by centrifugation (8600 rpm, 20 minutes, 4 °C) and resuspended in lysis buffer (50 mM Hepes, pH 8.0, 300 mM NaCl, 12.5 mM […]

14-3-3γ/PKR complex = biological target: T2, 14-3-3γ/PKR complex (Homo sapiens, UniProt P61981); assay: FA / TD-FA selectivity screen, PKR client peptide; assay type: binding; details: 100 μM compound
T2 construct: made in house; host or cells: E. coli NiCo21 (DE3)
T2 sequence (P61981 1-247): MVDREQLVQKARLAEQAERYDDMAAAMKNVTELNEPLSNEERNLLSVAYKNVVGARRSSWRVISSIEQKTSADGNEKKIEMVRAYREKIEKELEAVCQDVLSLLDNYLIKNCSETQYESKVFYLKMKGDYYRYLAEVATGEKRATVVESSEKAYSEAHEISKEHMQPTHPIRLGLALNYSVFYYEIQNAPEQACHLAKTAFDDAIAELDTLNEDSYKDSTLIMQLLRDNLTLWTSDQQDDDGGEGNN
Method: as §1, §2, §3, §4, §5, §6, §7
A pPROEX HTb expression vector encoding the human 14-3-3 protein gamma (14-3-3γ) with a N-terminal his6-tag was transformed by heat shock into NiCo21 (DE3) competent cells. Single colonies were cultured in 50 mL LB medium (100 µg/mL ampicillin). After overnight incubation at 37 °C, cultures were transferred to 2 L TB media (100 µg/mL ampicillin, 1 mM MgCl2) and incubated at 37 °C until an OD600 nm of 0.8 -1.2 was reached. […] Finally, the protein was concentrated to ∼60 mg/mL, analyzed Q-Tof LC/MS, and aliquots were flash-frozen for storage at −80 °C. […]

Row | Structure (SMILES) | effect on RND3 binding to 14-3-3γ over time (14-3-3γ/RND3 complex) | effect on 14-3-3γ/RND3 complex at short time lengths (14-3-3γ/RND3 complex) | stabilization of the PKR complex (14-3-3γ/PKR complex) | SF100 (14-3-3γ/RND3 complex; RND3 peptide)
1 | CN(C)CCSSCCN(C)C(=O)c1cccc(F)c1 [compound 1, reference compound] | remains an inhibitor | immediate destabilization | no stabilization | 
2 | CN(C)CCSSCCN(C)C(=O)c1ccc(C=O)c(F)c1 [compound 5] |  | immediate destabilization | no stabilization | 
3 | CN(C)CCSSCCN(C)C(=O)c1cc(Br)cc(C=O)c1 [compound 10] | enhancement in RND3 binding | immediate destabilization | no stabilization | ~7.9
